# Measured values as given in patent US20240308996A1, “PYRIDOPYRIDINES AND DERIVATIVES THEREOF AS SELECTIVE KINASE INHIBITORS” (University of Sharjah, priority 2023, published 2024).
# How the values were obtained:
# Assay type in all cases: cell-based
# CCRF-CEM = experiment: NCI-60 cell line panel: CCRF-CEM; settings: Leukemia; for IC50: Homo sapiens; for TGI: total growth inhibition
# Experimental: (§1) It was carried out at the NCI, Bethesda, MD, USA, utilizing their standard protocol.
# K-562 = experiment: NCI-60 cell line panel: K-562; parameters: TGI: unit not given here; settings: for IC50: Homo sapiens, K562, Leukemia; for TGI: Leukemia, total growth inhibition
# Experimental: as §1
# RPMI-8226 = experiment: NCI-60 cell line panel: RPMI-8226; settings: Leukemia; for IC50: Homo sapiens; for TGI: total growth inhibition
# Experimental: as §1
# HOP-62 = experiment: NCI-60 cell line panel: HOP-62; settings: Non-Small Cell Lung Cancer; for IC50: Homo sapiens; for TGI: total growth inhibition
# Experimental: as §1
# HOP-92 = experiment: NCI-60 cell line panel: HOP-92; parameters: TGI: unit not given here; settings: Non-Small Cell Lung Cancer; for IC50: Homo sapiens; for TGI: total growth inhibition
# Experimental: as §1
# NCI-H226 = experiment: NCI-60 cell line panel: NCI-H226; settings: Non-Small Cell Lung Cancer; for IC50: Homo sapiens; for TGI: total growth inhibition
# Experimental: as §1
# NCI-H522 = experiment: NCI-60 cell line panel: NCI-H522; parameters: TGI: unit not given here; settings: Non-Small Cell Lung Cancer; for IC50: Homo sapiens; for TGI: total growth inhibition
# Experimental: as §1
# HCC-2998 = experiment: NCI-60 cell line panel: HCC-2998; settings: Colon Cancer; for TGI: total growth inhibition; for IC50: Homo sapiens
# Experimental: as §1
# HCT-15 = experiment: NCI-60 cell line panel: HCT-15; settings: Colon Cancer; for TGI: total growth inhibition; for IC50: Homo sapiens
# Experimental: as §1
# HT29 = experiment: NCI-60 cell line panel: HT29; settings: for TGI: Colon Cancer, total growth inhibition; for IC50: Homo sapiens, HT-29, Colon Cancer
# Experimental: as §1
# SW-620 = experiment: NCI-60 cell line panel: SW-620; settings: Colon Cancer; for TGI: total growth inhibition; for IC50: Homo sapiens
# Experimental: as §1
# SF-268 = experiment: NCI-60 cell line panel: SF-268; settings: CNS Cancer; for TGI: total growth inhibition; for IC50: Homo sapiens
# Experimental: as §1
# SF-295 = experiment: NCI-60 cell line panel: SF-295; settings: CNS Cancer; for TGI: total growth inhibition, unit assumed; for IC50: Homo sapiens
# Experimental: as §1
# SF-539 = experiment: NCI-60 cell line panel: SF-539; settings: CNS Cancer; for TGI: total growth inhibition; for IC50: Homo sapiens
# Experimental: as §1
# SNB-75 = experiment: NCI-60 cell line panel: SNB-75; parameters: TGI: unit not given here; settings: CNS Cancer; for TGI: total growth inhibition; for IC50: Homo sapiens
# Experimental: as §1
# U251 = experiment: NCI-60 cell line panel: U251; parameters: TGI: unit not given here; settings: for TGI: CNS Cancer, total growth inhibition; for IC50: Homo sapiens, U-251, CNS Cancer
# Experimental: as §1
# MALME-3M = experiment: NCI-60 cell line panel: MALME-3M; settings: Melanoma; for IC50: Homo sapiens; for TGI: total growth inhibition, in µM (unit assumed)
# Experimental: as §1
# M14 = experiment: NCI-60 cell line panel: M14; settings: Melanoma; for IC50: Homo sapiens; for TGI: total growth inhibition
# Experimental: as §1
# MDA-MB-435 = experiment: NCI-60 cell line panel: MDA-MB-435; parameters: TGI: unit not given here; settings: Melanoma; for IC50: Homo sapiens; for TGI: total growth inhibition
# Experimental: as §1
# UACC-257 = experiment: NCI-60 cell line panel: UACC-257; settings: Melanoma; for IC50: Homo sapiens; for TGI: total growth inhibition
# Experimental: as §1
# IGROV1 = experiment: NCI-60 cell line panel: IGROV1; settings: for IC50: Homo sapiens, IGROV-1, Ovarian Cancer; for TGI: Ovarian Cancer, total growth inhibition
# Experimental: as §1
# OVCAR-3 = experiment: NCI-60 cell line panel: OVCAR-3; settings: Ovarian Cancer; for IC50: Homo sapiens; for TGI: total growth inhibition
# Experimental: as §1
# OVCAR-5 = experiment: NCI-60 cell line panel: OVCAR-5; settings: Ovarian Cancer; for IC50: Homo sapiens; for TGI: total growth inhibition
# Experimental: as §1
# NCI/ADR-RES = experiment: NCI-60 cell line panel: NCI/ADR-RES; parameters: TGI: unit not given here; settings: Ovarian Cancer; for IC50: Homo sapiens; for TGI: total growth inhibition
# Experimental: as §1
# RXF 393 = experiment: NCI-60 cell line panel: RXF 393; settings: Renal Cancer; for IC50: Homo sapiens; for TGI: total growth inhibition
# Experimental: as §1
# SN12C = experiment: NCI-60 cell line panel: SN12C; settings: Renal Cancer; for IC50: Homo sapiens; for TGI: total growth inhibition
# Experimental: as §1
# DU-145 = experiment: NCI-60 cell line panel: DU-145; settings: Prostate Cancer; for IC50: Homo sapiens; for TGI: total growth inhibition
# Experimental: as §1
# MCF7 = experiment: NCI-60 cell line panel: MCF7; settings: Breast Cancer; for TGI: total growth inhibition; for IC50: Homo sapiens
# Experimental: as §1
# HS 578T = experiment: NCI-60 cell line panel: HS 578T; settings: for TGI: Breast Cancer, HS 578T, total growth inhibition; for IC50: Homo sapiens, Hs-578T
# Experimental: as §1
# HepG2 = experiment: MTT assay, HepG2 HCC cell line; settings: Homo sapiens, 48 h, mean of triplicate assays ± SEM
# Experimental: (§2) Two HCC cell lines (Hep3B and HepG2) were used for screening the antiproliferative activity of the synthesized compounds. The cell lines were obtained from the European Collection of Cell Cultures (ECACC, UK) and maintained in Dulbecco's Modified Eagle Medium (DMEM: Sigma-Aldrich) supplemented with 10% fetal bovine serum (FBS) and 1% penicillin/streptomycin and incubated at 37° C. in a 5% CO2 air atmosphere. In addition, WI-38 normal cell line was used to investigate the safety of these compounds.
# (§3) MTT assay was conducted to calculate the IC50 of the compounds following the reported procedure . Briefly, the cells were seeded in 96-well tissue culture plates with a density of 5×10^4 cells/well and incubated overnight at 37° C. in a 5% CO2 air atmosphere. […] DMSO was used as a negative control. After 48 h, the media were aspirated, and replaced with media containing 0.5 mg/mL of MTT tetrazolium dye (Sigma-Aldrich) for 2 h at 37° C. Finally, the media were removed and 200 μL of DMSO was added to solubilize the formazan crystals. Absorbance was then measured at 570 nm using Varioskan Flash multimode plate reader (Thermo Scientific, Massachusetts, USA).
# Hep3B = experiment: MTT assay, Hep3B HCC cell line; settings: Homo sapiens, 48 h, mean of triplicate assays ± SEM
# Experimental: as §2, §3
compound,measurement,setting,value
"CC(C)NC(=O)c1cc(-c2ccc(NC(=O)Nc3ccc(N4CCN(C)CC4)c(C(F)(F)F)c3)cc2)nc2cccnc12 [Compound 13e, N-Isopropyl-2-(4-(3-(4-(4-methylpiperazin-1-yl)-3-(trifluoromethyl)phenyl)ureido)phenyl)-1,5-naphthyridine-4-carboxamide]",IC50,CCRF-CEM,740 nM
same,TGI,CCRF-CEM,1980 nM
same,IC50,K-562,920 nM
same,TGI,K-562,>38.8
same,IC50,RPMI-8226,980 nM
same,TGI,RPMI-8226,3480 nM
same,IC50,HOP-62,870 nM
same,TGI,HOP-62,1940 nM
same,IC50,HOP-92,700 nM
same,TGI,HOP-92,1.33
same,IC50,NCI-H226,5600 nM
same,TGI,NCI-H226,14700 nM
same,IC50,NCI-H522,670 nM
same,TGI,NCI-H522,1.37
same,TGI,HCC-2998,1360 nM
same,IC50,HCC-2998,700 nM
same,TGI,HCT-15,1410 nM
same,IC50,HCT-15,700 nM
same,TGI,HT29,1370 nM
same,IC50,HT29,670 nM
same,TGI,SW-620,1300 nM
same,IC50,SW-620,680 nM
same,TGI,SF-268,1620 nM
same,IC50,SF-268,700 nM
same,TGI,SF-295,1130 nM
same,IC50,SF-295,570 nM
same,TGI,SF-539,990 nM
same,IC50,SF-539,500 nM
same,TGI,SNB-75,3.97
same,IC50,SNB-75,590 nM
same,TGI,U251,1.34
same,IC50,U251,670 nM
same,IC50,MALME-3M,640 nM
same,TGI,MALME-3M,1.18
same,IC50,M14,670 nM
same,TGI,M14,1410 nM
same,IC50,MDA-MB-435,620 nM
same,TGI,MDA-MB-435,1.26
same,IC50,UACC-257,690 nM
same,TGI,UACC-257,1430 nM
same,IC50,IGROV1,740 nM
same,TGI,IGROV1,1390 nM
same,IC50,OVCAR-3,650 nM
same,TGI,OVCAR-3,1330 nM
same,IC50,OVCAR-5,650 nM
same,TGI,OVCAR-5,1230 nM
same,IC50,NCI/ADR-RES,1170 nM
same,TGI,NCI/ADR-RES,3.71
same,IC50,RXF 393,510 nM
same,TGI,RXF 393,1110 nM
same,IC50,SN12C,680 nM
same,TGI,SN12C,1260 nM
same,IC50,DU-145,720 nM
same,TGI,DU-145,1350 nM
same,TGI,MCF7,1300 nM
same,IC50,MCF7,650 nM
same,TGI,HS 578T,2190 nM
same,IC50,HS 578T,710 nM
same,IC50,HepG2,800 ± 40 nM
same,IC50,Hep3B,1760 ± 10 nM
"CCN1CCN(c2ccc(NC(=O)Nc3ccc(-c4cc(C(=O)NC(C)C)c5ncccc5n4)cc3)cc2C(F)(F)F)CC1 [Compound 13f, 2-(4-(3-(4-(4-Ethylpiperazin-1-yl)-3-(trifluoromethyl)phenyl)ureido)phenyl)-N-isopropyl-1,5-naphthyridine-4-carboxamide]",IC50,CCRF-CEM,1010 nM
same,TGI,CCRF-CEM,3100 nM
same,IC50,K-562,1000 nM
same,TGI,K-562,>34.5
same,IC50,RPMI-8226,1040 nM
same,TGI,RPMI-8226,> 34500 nM
same,IC50,HOP-62,3830 nM
same,TGI,HOP-62,8890 nM
same,IC50,HOP-92,3140 nM
same,TGI,HOP-92,8.29
same,IC50,NCI-H226,5020 nM
same,TGI,NCI-H226,12500 nM
same,IC50,NCI-H522,3520 nM
same,TGI,NCI-H522,8.43
same,TGI,HCC-2998,5090 nM
same,IC50,HCC-2998,1440 nM
same,TGI,HCT-15,1350 nM
same,IC50,HCT-15,670 nM
same,TGI,HT29,1320 nM
same,IC50,HT29,670 nM
same,TGI,SW-620,1260 nM
same,IC50,SW-620,640 nM
same,TGI,SF-268,10900 nM
same,IC50,SF-268,3560 nM
same,TGI,SF-295,1140 nM
same,IC50,SF-295,580 nM
same,TGI,SF-539,1020 nM
same,IC50,SF-539,530 nM
same,TGI,SNB-75,5.14
same,IC50,SNB-75,980 nM
same,TGI,U251,4.82
same,IC50,U251,1240 nM
same,IC50,MALME-3M,580 nM
same,TGI,MALME-3M,1.05
same,IC50,M14,720 nM
same,TGI,M14,1900 nM
same,IC50,MDA-MB-435,650 nM
same,TGI,MDA-MB-435,1.31
same,IC50,UACC-257,3450 nM
same,TGI,UACC-257,8110 nM
same,IC50,IGROV1,1420 nM
same,TGI,IGROV1,5110 nM
same,IC50,OVCAR-3,640 nM
same,TGI,OVCAR-3,1360 nM
same,IC50,OVCAR-5,1600 nM
same,TGI,OVCAR-5,6090 nM
same,IC50,NCI/ADR-RES,3660 nM
same,TGI,NCI/ADR-RES,10.00
same,IC50,RXF 393,650 nM
same,TGI,RXF 393,1730 nM
same,IC50,SN12C,670 nM
same,TGI,SN12C,1380 nM
same,IC50,DU-145,750 nM
same,TGI,DU-145,1580 nM
same,TGI,MCF7,1500 nM
same,IC50,MCF7,630 nM
same,TGI,HS 578T,3450 nM
same,IC50,HS 578T,880 nM
same,IC50,HepG2,460 ± 60 nM
same,IC50,Hep3B,1090 ± 140 nM
